Measured values: patent publication US6683107B2, “Furans, benzofurans, and thiophenes useful in the treatment of insulin resistance and hyperglycemia” (Wyeth, priority 1998, dated 2004)

Tests used:
[1] = target: T1, human recombinant PTP1B (hPTP1B) (Homo sapiens, UniProt P18031); test: Inhibition of tri-phosphorylated insulin receptor dodecaphosphopeptide dephosphorylation by hPTP1B (malachite green phosphate detection); format: biochemical
T1 construct: made in house
T1 sequence (P18031 1-435): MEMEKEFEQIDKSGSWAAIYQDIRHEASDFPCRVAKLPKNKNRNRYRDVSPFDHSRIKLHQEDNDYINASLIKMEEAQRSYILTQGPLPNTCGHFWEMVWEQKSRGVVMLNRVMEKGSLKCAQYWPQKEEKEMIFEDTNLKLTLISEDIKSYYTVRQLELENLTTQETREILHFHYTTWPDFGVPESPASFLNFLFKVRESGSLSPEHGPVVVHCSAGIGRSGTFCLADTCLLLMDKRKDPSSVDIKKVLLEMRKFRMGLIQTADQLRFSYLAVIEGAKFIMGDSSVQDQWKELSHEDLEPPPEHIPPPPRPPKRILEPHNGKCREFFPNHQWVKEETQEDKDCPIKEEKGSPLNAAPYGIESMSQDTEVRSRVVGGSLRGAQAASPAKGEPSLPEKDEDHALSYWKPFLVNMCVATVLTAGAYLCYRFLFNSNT

inhibition at 1 µM ([1]; compound at 1.0 μM, percent of phosphatase control) [%] | Compound | IC50 ([1]; recombinant PTP1B, insulin receptor 1142-1153 triphosphopeptide substrate, 37° C., 30 min, pH 7.4) [nM] | melting point [°C]
 | CC(=O)Oc1cc(S(=O)(=O)Oc2ccc(C(=O)c3c(Cc4ccc(Br)cc4)sc(C)c3C)cc2C2CCCC2)ccc1C(=O)O [Example 24, 2-Acetoxy-4-{4-[2-(4-Bromo-benzyl)-4,5-dimethyl-thiophene-3-carbonyl]-2-cyclopentyl-phenoxysulfonyl}-benzoic acid] | 254 | 113 to 114
28.8 | CCCCc1oc2ccccc2c1CNc1ccc(OS(=O)(=O)c2ccc(C(=O)O)c(O)c2)cc1 [Example 15, 4-{4-[(2-Butyl-benzofuran-3-ylmethyl)-amino]-phenoxysulfonyl}-2-hydroxy-benzoic acid] |  | 75 to 77
